Reference: patent US20210189327A1, “3D […] CONSTRUCTS AND METHODS OF MAKING THEREOF” (McMaster University, priority 2019, published 2021)

System: MCF-7 cells
Experiment: Effect of actin cytoskeleton impairment on spheroid formation and consolidation
Assay type: cell-based
Conditions: 100 nM; 1 hr pretreatment without (T-nT) or with (T-T) the same concentration during spheroid formation; 5×10^5 MCF-7 cells in large wells; P-value>0.05
Description: Rapid Formation of Spheroidal Tissue Constructs. In order to form spheroidal tissue constructs, PDMS molds in the form of circular wells with spherical bottom were used. These molds were prepared by mixing PDMS and its curing agent with the ratio of 10:1 and casting it on the Poly lactic acid (PLA) master mold with negative of the required patterns. Master molds were designed using software Solidworks© and 3D printed using a Stereolithography (SLA) based 3D printer (Objet 24 Desktop 3D printer). A large and small well size were created with diameters of 4 and 2.5 mm respectively. MCF-7 (Michigan Cancer Foundation-7, a breast cancer cell line) cells were cultured in Dulbecco's Modified Eagle Medium (DMEM) (Thermofisher, high glucose) supplemented with 10% V/V fetal bovine serum (FBS) (Thermofisher, US origin) and 1% Penicillin-Streptomycin (Thermofisher, 10000 U/mL) until 70% confluent. Cells were trypsinized and detached from tissue culture flasks. Required number of cells (10^5 or 10^6) were aliquoted, precipitated using centrifugation, and resuspended in proper amount of medium (5 μL for small wells, 15 μL for large wells). The cell solution then was added to the equal amount of bovine collagen type I (Thermofisher, 5 mg/mL) and mixed to get a uniform distribution of cells. […]

Compound: C/C1=C/C(=O)O[C@@H]2C[C@@H](CC[C@H](C)/C=C\C=C\CC1)O[C@@](O)([C@@H]1CSC(=O)N1)C2 [latrunculin A, Latrunculin A]
- difference between spheroid radii after 6 hrs versus untreated control (nT-nT): no meaningful difference
